From ChEMBL document CHEMBL3507680, “University of Dundee, Gates Library screen for HepG2 cell viability”

Assay: Human HepG2 cell viability assay in 384 well format
Assay type: toxicity, cell-based
Parameters: dose 125 nL, time 70.5 hour; concentration not given beside the values
Settings: HepG2 cells, read-out: Inhibition

SMILES	cytotoxicity at 70.5 h
CN1[C@H]2CC[C@@H]1CN(c1cc(Sc3cccs3)nc(N)n1)CC2	22.8%
c1csc(CN2CCn3c(Cn4cncn4)cnc3C2)c1	27.5%
N#CC(NC(=O)CCCOc1cccnc1)c1ccccc1Cl (stereo not drawn)	-3.34%
CS(=O)(=O)N1C[C@@H]2COC[C@]2(C(=O)NCCc2cccs2)C1	-7.21%
CC(C)n1ncc2cc(NC(=O)N3CCC(N4CCCC4)C3)cnc21 (stereo not drawn)	1.93%
CN1CCCC(Cc2cncc(C(=O)N3CCOCC3)c2)C1 (stereo not drawn)	12.9%
O=C(NC[C@H]1OC[C@@H]2CCN(c3ncccn3)C[C@@H]21)c1ccnnc1	1.23%
CN(Cc1ccccn1)c1nccc(N2CCN[C@H]3CS(=O)(=O)C[C@H]32)n1	8.37%
O=C(NCC1(CO)CC1)c1ccccc1C(F)(F)F	-9.3%
COc1ccc(CCN2C(=O)O[C@@H]3CN(C)C[C@@H]32)cc1	-10.7%
CC(NC(=O)c1cccs1)C(=O)NS(=O)(=O)c1ccc(C#N)cc1 (stereo not drawn)	-5.58%
Cc1cc(C(F)(F)F)cc(N2CCN(Cc3ccccc3)CC(O)C2)n1 (stereo not drawn)	3.5%
FC(F)(F)c1cccc(OC2CCN(Cc3ccccn3)CC2)c1	-0.484%
O=C(NCc1nc[nH]n1)c1cc(COc2cccc(F)c2)[nH]n1	11.1%
CC(c1cccc(-c2nccn2CCc2cn[nH]c2)c1)N(C)C (stereo not drawn)	4.99%
COCC1CN(S(=O)(=O)c2cccs2)Cc2ncnn2C1 (stereo not drawn)	-12.8%
CNC(=O)c1c(C)cccc1NCc1noc(C2CC2)n1	-2.54%
CCn1nc(CNC(C)(C)CO)c(-c2ccccc2)n1	-1.62%
CC[C@H]1NCCC[C@]12CCC(=O)N2Cc1ccncc1	-0.708%
COc1ccc(CN(C(=O)C2CCOCC2)c2ccncc2)cc1	-10.6%
COCCc1ncc(CN2CCCC(C(=O)c3ccccc3)C2)cn1 (stereo not drawn)	-26%
CCCc1n[nH]c(C2CN(C(=O)c3ccc(C)[nH]c3=O)CCO2)n1 (stereo not drawn)	15.4%
CN(C)C1CCN(C(=O)NCc2ccccc2Cn2cncn2)CC1	-11.6%

SMILES	cytotoxicity at 70.5 h
Cc1ccccc1NC(=O)CCNC(=O)c1ccoc1	2.88%
O=C(NCc1nnc2n1CCCCC2)N1CCc2sccc2C1	-5.42%
CC(C)N1CCC(N2CCOC3(CCCC3)C2)C1=O (stereo not drawn)	-6.53%
CSC(C)(C)CNC(=O)NCC[S+]([O-])c1ccccc1F (stereo not drawn)	-9.35%
CN1CCN(Cc2cnc3n2CCN(C(=O)c2cnccn2)C3)CC1	-4.26%
CC/C=C(\C)CN1CCC(CNC(=O)c2ccc(=O)[nH]c2)CC1	-6.38%
CCCN(C(=O)c1ccccn1)c1nc2c(s1)CCc1c-2cnn1C	3.64%
CS(=O)(=O)N[C@@H]1CCO[C@]2(CCN(C(=O)C3=CCCC3)C2)C1	-10%
O=C(c1ccncc1)N1CCCn2c(CN3CCCCC3)nnc2C1	-8.6%
Cc1cc(Cc2ccc(S(=O)(=O)N3CCOCC3)cc2)c(=O)[nH]n1	12.1%
COCCN1CCN(CC(O)c2ccc(C(F)(F)F)cc2)CC1 (stereo not drawn)	-7.3%
CNC(=O)N1CCC(=Cc2ccccc2)CC1	-12%
CCN(CC)c1nc(Nc2cccc(C(=O)O)c2)nc2ccccc12	-11.2%
Cc1[nH]ncc1CCCNC(=O)N1CCOC(C)C1 (stereo not drawn)	-5.97%
CCCC(NC(=O)c1cnccn1)c1nnc2ccccn12 (stereo not drawn)	-11%
COCCNC(=O)Cn1ccc2sc(C)cc2c1=O	-5.23%
Cc1nn(C)cc1C1=NS(=O)(=O)N(C)C(C(=O)Nc2ccc(Br)cc2)=C1	0.0552%
CCOC(C)c1nccn1CCC(=O)Nc1cc(C)on1 (stereo not drawn)	6.06%
COc1cc(F)c(C(=O)NCc2cc(C)on2)c(F)c1	-6.54%
COc1ccc2c(=O)n(CC3CCNC3)ccc2c1OC (stereo not drawn)	1.63%
COC[C@H]1CC[C@H]2[C@H](CCN2S(=O)(=O)c2ccccc2)O1	5.05%
O=C(c1cc(-c2cccnc2)[nH]n1)N1CCCC(Cc2ccccn2)C1 (stereo not drawn)	9.07%
Cc1nn2cnnc2c(C)c1CCC(=O)Nc1nnc(C(C)C)s1	12.1%

SMILES	cytotoxicity at 70.5 h
CS(=O)(=O)CCCN(CCCO)C1CCc2ccccc21 (stereo not drawn)	-107%
CC(C)CCc1nc(CNCC2CN(C)CCO2)cs1 (stereo not drawn)	-1.37%
Cc1ncsc1C(=O)N1CCCC(CO)(CC2CC2)C1 (stereo not drawn)	-7.6%
Cc1cnn(CC(C)NCc2c(C)nn(Cc3ccccc3)c2C)c1 (stereo not drawn)	-4.31%
CN1CC(c2ccccc2)CC12CCN(C(=O)c1cncc(Cl)c1)CC2 (stereo not drawn)	-8.59%
Cc1cc(CN[C@@H](C)C(N)=O)c(C)s1	-7.91%
Cc1nccn1CCC(=O)N1CCC2(CCC(=O)N(CC3CC3)C2)CC1	2.21%
Cc1nn(C)c(N(C)C)c1CNCc1ccnc(N2CCOCC2)c1	-5.46%
Cc1nc(CCN)cc(N2CCC(O)(c3ccc(Cl)cc3)CC2)n1	19.3%
Cc1cccc(CNCc2c(C)nn(C)c2N2CCOCC2)n1	-2.64%
c1c[nH]c(CN2CCCC(Cc3ccc(NC4CCCC4)nn3)C2)n1 (stereo not drawn)	7.73%
O=C(C1CC1)N1C[C@H]2CCCN(S(=O)(=O)c3cccc(F)c3)[C@H]2C1	3.8%
CC(C)CN1CC(C(=O)NCc2ccnc(-n3cccn3)c2)CC1=O (stereo not drawn)	12.8%
CCC(NC(=O)C1CC1)c1ccccc1OCC(=O)N1CCCC1 (stereo not drawn)	-6.4%
COC(=O)c1cc(OC)ccc1NCC(=O)NCC(=O)N1CCCC1	-17.6%
Cc1cc(CN2CCc3nn(C(C)C)c(=O)cc3C2)no1	5.97%
COCCN(Cc1nccs1)C(=O)c1cc(-c2ccc(C)s2)n[nH]1	-5.54%
Cc1nc(-c2ccco2)ccc1C(=O)NCC(=O)N1CCCCC1	-117%
Cc1cncc(C(=O)N2CCCC(O)(CN(C)C)CC2)c1 (stereo not drawn)	7.68%
O=C(COCc1ccco1)Nc1cc(C(F)(F)F)c[nH]c1=O	31.5%
CCCOCC1CCN(C(=O)c2cnc(-c3cccnc3)nc2O)C1 (stereo not drawn)	-6.25%
CC(=O)N1CC(=O)N(c2ccccc2)CC12CCN(Cc1ccsc1)C2 (stereo not drawn)	-8.03%
CCn1cnnc1CN(C)c1nccc(C2CCCC2)n1	-7.13%

SMILES	cytotoxicity at 70.5 h
Cc1ncncc1C(=O)NCCn1nc2ccccn2c1=O	-3.41%
CCN(CCO)Cc1ccc(Br)c2cccnc12	-1.88%
O=C1CN(C(=O)C2CCCOC2)CCN1Cc1ccc(Cl)cc1 (stereo not drawn)	-5.9%
NCCn1cc(C(=O)N2CCCCCC2c2cccc(F)c2)nn1 (stereo not drawn)	13.5%
CCc1cnc(CNc2cccc3c2CCN(S(=O)(=O)CC)C3)o1	-2.87%
Cc1ccc(CN2Cc3nnn(C)c3C(COCC(=O)N(C)C)C2)s1 (stereo not drawn)	-8.72%
CN(Cc1cccnc1)C1CC2(CCN(Cc3ccccn3)CC2)C1	-11.6%
O=C1CCCN1Cc1ncn2c1CN(C(=O)C1CC=CC1)CCC2	-5.43%
Cc1ccc(NC2CCN(C(=O)Cc3c(C)noc3C)CC2)nn1	-2.99%
COc1ccc(CCC(=O)NCCN2CCC(c3cccs3)CC2)cc1	-1.5%
O=C(CCCNc1ncccn1)Nc1cc(C(F)(F)F)c[nH]c1=O	-2.93%
Cn1nccc1C(=O)N1CC[C@]2(C[C@H](OCc3ccccn3)CO2)C1	-11.1%
CC1CN(CC(=O)Nc2nncs2)CCN1Cc1nccn1C (stereo not drawn)	-4.59%
COc1c(Br)cccc1CCNC(=O)c1csnn1	-11.9%
COCC[C@]1(O)CCN(C(=O)CCn2c(C)cccc2=O)C[C@H]1C	12.1%
Cc1cc(C(=O)N2CCCC(C)C2)ccc1NCc1nc(C(C)C)no1 (stereo not drawn)	-9.64%
CS(=O)(=O)NC[C@]12COC[C@H]1CN(C(=O)c1ccccc1)C2	-3.75%
CS(=O)(=O)NCc1cncc2c1CCN(C(=O)c1ccccn1)C2	-12.5%
CCN1CC2(CC1=O)CN(C(C)=O)CCN(S(C)(=O)=O)C2 (stereo not drawn)	-13.4%
CC(C)(O)CSCCNC(=O)c1ccc(F)cc1Cl	-2.51%
CN1CCCC(c2n[nH]c3ncccc23)C1 (stereo not drawn)	-11.4%
CCS(=O)(=O)NCCCNC(=O)N(C)C(C)c1ccccn1 (stereo not drawn)	-5.57%
CC1CN(C(=O)Nc2cc(C(F)(F)F)c[nH]c2=O)CC(C)(C)O1 (stereo not drawn)	-8.86%

SMILES	cytotoxicity at 70.5 h
Cc1nc(C(=O)N2CCC(Cc3cnc4[nH]ccc4c3)C2)co1 (stereo not drawn)	18.9%
Cc1ccc2cc(CNCCN3CCCC3)c(=O)[nH]c2c1	-0.158%
CCc1cnc(C)nc1NCC(O)CN1CCCCCC1 (stereo not drawn)	-4.26%
O=C([C@@H]1COC[C@H]2CN(C3CCCCC3)C[C@H]21)N1CCOCC1	-9.47%
COCC(=O)N1CCCC(C(=O)c2cnn(-c3ccc(F)cc3)c2N)C1 (stereo not drawn)	9.29%
OC(CN1CCN(Cc2ccc(F)cc2)CC1)C1CC1 (stereo not drawn)	-1.06%
O=C(CCc1ccccc1)NCC1CCN(Cc2ccccc2)CC1	0.0668%
Cc1ccc(N2CCC(c3[nH]ncc3Cc3ccccc3)CC2)nn1	-10%
Cc1nc2cc(=O)[nH]n2c(C)c1CC(=O)Nc1cnn(C)c1	0.718%
COCC1COCCC12CCN(Cc1nccs1)CC2 (stereo not drawn)	-5.6%
CCc1nc(-c2cncnc2C2CCNC2)no1 (stereo not drawn)	18%
Cc1c(C(=O)N2CCC3(CCCNC3=O)C2)sc2nc[nH]c(=O)c12 (stereo not drawn)	-7.46%
Cc1cc(C)n(C2CN(CCc3ccccn3)C2)n1	-11.1%
CCC(NC(=O)C1CCN(S(C)(=O)=O)CC1)c1ccc(OC)c(C)c1 (stereo not drawn)	-9.2%
CNC(=O)C1(c2cnccn2)CCCN1C(=O)c1ccccc1F (stereo not drawn)	-3.62%
CC(NCC1CCS(=O)(=O)CC1)c1cccc(OC(F)F)c1 (stereo not drawn)	-6.96%
Cc1nc(NCc2ccc(C)o2)cc(C2CCNCC2)n1	-23.6%
O=C(NC[C@H]1OC[C@@H](NC2CCCCC2)[C@@H]1O)c1cccs1	-5.2%
CCN1CCOCC12CCN(C(=O)Cc1cccs1)CC2	-8.5%
Cn1nccc1-c1ncc2c(c1C(=O)O)CCN(Cc1ccccc1)C2	11.6%
CNc1ncc(CN(C)Cc2cc(O)c3cccc(Cl)c3n2)cn1	-15.2%
